From ChEMBL document CHEMBL1201862, “PubChem BioAssay data set” (2004)
Activity calls are given as the source filed them.

Assays:
[1] = system: Streptococcus sp. 'group A'; assay: growth inhibition of control SK(-) GAS strain, dose response, counter-screen for streptokinase expression inhibitor project, luminescence, kanamycin, BacTiterGlo, confirmation (AID 1900); type: functional, organism-based; settings: Streptococcus sp. 'group A'
Streptokinase A = molecular target: T1, Streptokinase A (Streptococcus pyogenes serotype M1, UniProt P10520); assay: S. pyogenes streptokinase expression inhibitors, potency, dose response, plasminogen activation absorbance, OD405 (AID 1914); type: functional, Streptococcus pyogenes M1 GAS;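 further: secreted streptokinase activity via plasminogen activation per viability signal from cell pellet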
T1 sequence (P10520 whole entry): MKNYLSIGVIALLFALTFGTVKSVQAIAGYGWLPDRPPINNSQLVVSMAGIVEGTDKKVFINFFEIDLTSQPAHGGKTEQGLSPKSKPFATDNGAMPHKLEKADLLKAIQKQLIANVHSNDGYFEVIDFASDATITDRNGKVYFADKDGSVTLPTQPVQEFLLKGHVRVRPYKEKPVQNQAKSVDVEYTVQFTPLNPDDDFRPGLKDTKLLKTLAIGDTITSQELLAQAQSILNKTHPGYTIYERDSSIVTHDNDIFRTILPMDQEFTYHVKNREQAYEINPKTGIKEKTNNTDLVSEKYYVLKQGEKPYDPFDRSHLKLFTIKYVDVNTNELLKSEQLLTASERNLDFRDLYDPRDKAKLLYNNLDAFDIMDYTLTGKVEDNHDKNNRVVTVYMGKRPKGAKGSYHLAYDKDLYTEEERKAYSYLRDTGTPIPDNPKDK

Streptococcus = assay: Group A Streptococcus viability loss, dose response, counter-screen for streptokinase expression inhibitor project, luminescence, BacTiterGlo (AID 1915); type: functional, organism-based; settings: Streptococcus;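 further: potency for reduction of bacterial viability or growth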
[2] = molecular target: T2, Carboxy-terminal domain RNA polymerase II polypeptide A small phosphatase 1 (Homo sapiens, UniProt Q9GZU7); assay: inhibitors of CTDSP1, concentration-response testing, biochemical assay, absorbance-based, actives from ultra-high-throughput screening (AID 540297); type: functional
T2 sequence (Q9GZU7 whole entry): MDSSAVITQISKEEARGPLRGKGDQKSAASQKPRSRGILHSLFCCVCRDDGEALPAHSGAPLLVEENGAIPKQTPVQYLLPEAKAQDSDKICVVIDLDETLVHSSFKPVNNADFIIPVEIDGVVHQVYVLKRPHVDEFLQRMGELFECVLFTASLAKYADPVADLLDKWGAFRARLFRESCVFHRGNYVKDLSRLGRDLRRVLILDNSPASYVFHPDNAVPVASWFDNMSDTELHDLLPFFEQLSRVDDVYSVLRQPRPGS

[3] = inhibitors of intracellular T. cruzi replication, confirmation, NIH3T3 host cells, beta-gal luminescence (AID 2044); type: functional, cell-based;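 further: intracellular parasites grown in NIH/3T3 mouse fibroblasts as host cells; luminescent beta-galactosidase reporter signal from transgenic T. cruzi replicating inside host cells; inhibitors lower the luminescence signal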
[4] = cytotoxicity toward NIH3T3 fibroblasts, dose response, counter-screen, cell-based, ATP luminescence, mouse fibroblasts (AID 2010); type: functional; settings: NIH3T3;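 further: cells exposed to compound for about 90 hours before reading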
[5] = THP-1 cell cytotoxicity, dose response, cytotoxicity control for non-replicating M. tuberculosis project (AID 489025); type: functional
[6] = HepG2 cell cytotoxicity, dose response, cytotoxicity control for non-replicating M. tuberculosis project (AID 489018); type: functional; settings: Mycobacterium tuberculosis
[7] = Vero E6 cell cytotoxicity, dose response, cytotoxicity control for non-replicating M. tuberculosis project, secondary assay (AID 492998); type: functional, VeroE6; settings: Vero C1008
cells = type: functional
[8] = molecular target: Heat shock protein HSP 90-alpha (Homo sapiens, UniProt P07900); type: functional, organism-based
Fatty acid synthase [9] = molecular target: T3, Fatty acid synthase (Homo sapiens, UniProt P49327); assay: FAS thioesterase domain inhibitors, dose response, biochemical, endpoint fluorescence intensity, uHTS hits (AID 624327); type: functional;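 further: fluorescence from hydrolysis of an O-methyl fluorescein acyl ester substrate by the enzyme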
Fatty acid synthase [10] = molecular target: T3, Fatty acid synthase; assay: FAS thioesterase domain inhibitors, dose response, biochemical, kinetic fluorescence intensity (AID 624326); type: functional;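 further: rate of fluorescence rise from hydrolysis of a fluorogenic O-methyl fluorescein ester substrate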
Nonstructural protein 1 = Nonstructural protein 1 (Influenza A virus, UniProt Q194T2); type: functional, Influenza A virus (A/California/07/2009(H1N1))
[11] = molecular target: Glucose-6-phosphate 1-dehydrogenase (Homo sapiens, UniProt P11413); assay: human G6PD enzyme inhibitors, dose response, selectivity assay for P. falciparum G6PD inhibitor project, biochemical, fluorescence (AID 504792); type: functional
[12] = molecular target: T4, Apoptotic protease-activating factor 1 (Homo sapiens, UniProt O14727); type: functional
T4 sequence (O14727 whole entry): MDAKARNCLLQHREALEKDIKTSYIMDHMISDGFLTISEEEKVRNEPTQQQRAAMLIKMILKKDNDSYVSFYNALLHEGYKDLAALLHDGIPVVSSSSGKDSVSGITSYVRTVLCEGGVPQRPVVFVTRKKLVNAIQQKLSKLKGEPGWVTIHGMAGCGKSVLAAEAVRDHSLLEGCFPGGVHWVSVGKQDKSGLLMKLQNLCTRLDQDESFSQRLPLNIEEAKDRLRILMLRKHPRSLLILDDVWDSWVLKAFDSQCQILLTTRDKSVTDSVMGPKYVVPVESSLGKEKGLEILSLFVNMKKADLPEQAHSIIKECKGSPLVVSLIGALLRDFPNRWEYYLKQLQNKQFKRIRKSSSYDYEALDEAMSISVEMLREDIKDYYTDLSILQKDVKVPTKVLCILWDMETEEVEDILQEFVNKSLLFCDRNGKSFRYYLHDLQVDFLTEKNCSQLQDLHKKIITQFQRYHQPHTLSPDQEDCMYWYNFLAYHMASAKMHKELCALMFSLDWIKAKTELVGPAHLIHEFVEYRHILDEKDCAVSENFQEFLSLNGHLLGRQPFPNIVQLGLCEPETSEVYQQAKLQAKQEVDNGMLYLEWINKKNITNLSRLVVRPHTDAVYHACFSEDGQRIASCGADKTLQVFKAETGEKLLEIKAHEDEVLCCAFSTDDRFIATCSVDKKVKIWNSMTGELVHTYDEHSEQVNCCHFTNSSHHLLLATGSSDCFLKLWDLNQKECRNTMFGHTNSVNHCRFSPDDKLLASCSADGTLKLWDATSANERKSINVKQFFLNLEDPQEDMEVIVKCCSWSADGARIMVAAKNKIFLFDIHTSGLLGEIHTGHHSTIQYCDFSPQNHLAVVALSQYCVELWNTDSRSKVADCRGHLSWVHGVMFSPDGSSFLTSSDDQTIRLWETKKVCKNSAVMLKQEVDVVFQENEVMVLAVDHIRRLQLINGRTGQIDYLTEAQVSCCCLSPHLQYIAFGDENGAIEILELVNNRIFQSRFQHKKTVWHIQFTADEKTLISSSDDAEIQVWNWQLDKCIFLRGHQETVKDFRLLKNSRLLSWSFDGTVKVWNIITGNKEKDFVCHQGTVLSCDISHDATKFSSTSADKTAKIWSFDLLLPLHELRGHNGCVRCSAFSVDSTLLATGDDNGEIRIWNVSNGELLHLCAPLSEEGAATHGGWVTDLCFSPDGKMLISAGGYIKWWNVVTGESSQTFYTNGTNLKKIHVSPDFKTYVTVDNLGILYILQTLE

T3 sequence (P49327 whole entry, the tested form may be a part): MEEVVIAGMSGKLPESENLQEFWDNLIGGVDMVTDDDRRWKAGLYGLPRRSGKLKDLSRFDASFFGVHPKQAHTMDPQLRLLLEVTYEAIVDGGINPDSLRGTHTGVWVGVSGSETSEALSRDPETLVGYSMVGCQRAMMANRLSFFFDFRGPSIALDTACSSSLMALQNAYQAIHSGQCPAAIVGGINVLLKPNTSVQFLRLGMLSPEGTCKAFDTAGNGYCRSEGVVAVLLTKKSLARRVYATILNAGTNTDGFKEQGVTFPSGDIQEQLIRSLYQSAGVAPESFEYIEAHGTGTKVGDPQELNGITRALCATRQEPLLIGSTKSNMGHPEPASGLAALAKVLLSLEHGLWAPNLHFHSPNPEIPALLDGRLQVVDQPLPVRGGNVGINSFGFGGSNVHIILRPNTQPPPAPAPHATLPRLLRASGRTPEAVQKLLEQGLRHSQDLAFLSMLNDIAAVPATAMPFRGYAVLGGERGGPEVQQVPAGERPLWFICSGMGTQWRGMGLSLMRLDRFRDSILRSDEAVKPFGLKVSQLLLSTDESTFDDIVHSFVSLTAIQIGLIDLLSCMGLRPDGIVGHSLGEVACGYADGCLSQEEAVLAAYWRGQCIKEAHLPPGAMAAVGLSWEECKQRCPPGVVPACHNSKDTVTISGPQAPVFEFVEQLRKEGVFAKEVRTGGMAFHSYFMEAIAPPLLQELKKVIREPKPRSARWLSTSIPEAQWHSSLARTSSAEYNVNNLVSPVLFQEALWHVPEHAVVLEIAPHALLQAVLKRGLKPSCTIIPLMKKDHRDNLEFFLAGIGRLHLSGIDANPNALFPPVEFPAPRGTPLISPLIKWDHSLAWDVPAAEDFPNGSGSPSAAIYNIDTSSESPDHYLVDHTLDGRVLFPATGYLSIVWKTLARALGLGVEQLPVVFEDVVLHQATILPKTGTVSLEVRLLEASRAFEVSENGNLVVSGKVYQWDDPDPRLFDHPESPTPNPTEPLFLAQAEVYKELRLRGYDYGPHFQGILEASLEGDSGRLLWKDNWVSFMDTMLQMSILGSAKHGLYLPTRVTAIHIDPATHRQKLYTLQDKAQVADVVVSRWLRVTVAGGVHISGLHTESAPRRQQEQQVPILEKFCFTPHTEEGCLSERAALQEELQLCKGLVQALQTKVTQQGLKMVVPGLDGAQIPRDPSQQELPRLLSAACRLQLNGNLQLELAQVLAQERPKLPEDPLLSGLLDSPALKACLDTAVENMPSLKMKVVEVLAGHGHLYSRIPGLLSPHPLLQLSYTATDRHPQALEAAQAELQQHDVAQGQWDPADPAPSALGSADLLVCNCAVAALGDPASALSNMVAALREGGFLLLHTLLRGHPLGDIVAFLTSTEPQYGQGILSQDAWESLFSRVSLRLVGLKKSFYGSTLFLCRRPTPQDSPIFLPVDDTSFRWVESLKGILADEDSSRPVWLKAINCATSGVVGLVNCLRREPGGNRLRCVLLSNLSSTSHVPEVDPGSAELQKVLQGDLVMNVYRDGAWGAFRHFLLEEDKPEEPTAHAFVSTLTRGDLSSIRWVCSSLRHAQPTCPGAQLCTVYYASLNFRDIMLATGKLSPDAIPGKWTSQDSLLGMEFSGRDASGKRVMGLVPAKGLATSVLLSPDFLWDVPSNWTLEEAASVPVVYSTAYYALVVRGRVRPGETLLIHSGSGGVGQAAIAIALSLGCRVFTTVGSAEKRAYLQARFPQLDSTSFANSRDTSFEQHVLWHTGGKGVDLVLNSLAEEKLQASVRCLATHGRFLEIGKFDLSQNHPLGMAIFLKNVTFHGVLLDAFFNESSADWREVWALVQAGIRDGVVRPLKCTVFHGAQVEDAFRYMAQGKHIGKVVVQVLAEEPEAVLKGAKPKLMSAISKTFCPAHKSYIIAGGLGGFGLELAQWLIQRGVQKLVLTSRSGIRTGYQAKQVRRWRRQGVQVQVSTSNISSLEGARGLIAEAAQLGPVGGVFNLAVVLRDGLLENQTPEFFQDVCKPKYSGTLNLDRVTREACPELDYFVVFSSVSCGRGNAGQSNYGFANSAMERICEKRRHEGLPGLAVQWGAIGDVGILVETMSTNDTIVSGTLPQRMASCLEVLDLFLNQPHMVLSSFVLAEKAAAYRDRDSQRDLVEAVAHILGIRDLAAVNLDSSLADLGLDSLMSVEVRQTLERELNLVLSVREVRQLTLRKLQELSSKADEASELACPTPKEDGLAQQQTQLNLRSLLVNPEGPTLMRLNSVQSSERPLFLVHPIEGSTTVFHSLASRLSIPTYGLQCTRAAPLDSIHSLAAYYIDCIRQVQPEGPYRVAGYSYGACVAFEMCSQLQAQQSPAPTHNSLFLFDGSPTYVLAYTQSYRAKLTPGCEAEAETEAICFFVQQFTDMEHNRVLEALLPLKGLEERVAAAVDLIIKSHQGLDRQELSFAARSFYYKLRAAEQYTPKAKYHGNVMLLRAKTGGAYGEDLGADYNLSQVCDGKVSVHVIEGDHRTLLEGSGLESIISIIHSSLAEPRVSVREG
Nonstructural protein 1, sequence (Q194T2 whole entry): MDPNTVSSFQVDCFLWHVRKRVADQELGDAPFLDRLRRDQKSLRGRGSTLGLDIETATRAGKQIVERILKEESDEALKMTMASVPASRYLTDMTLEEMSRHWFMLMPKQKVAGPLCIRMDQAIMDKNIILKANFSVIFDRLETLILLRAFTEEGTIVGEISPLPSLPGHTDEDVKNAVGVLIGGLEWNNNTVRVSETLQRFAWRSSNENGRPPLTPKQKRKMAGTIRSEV
Glucose-6-phosphate 1-dehydrogenase, sequence (P11413 whole entry): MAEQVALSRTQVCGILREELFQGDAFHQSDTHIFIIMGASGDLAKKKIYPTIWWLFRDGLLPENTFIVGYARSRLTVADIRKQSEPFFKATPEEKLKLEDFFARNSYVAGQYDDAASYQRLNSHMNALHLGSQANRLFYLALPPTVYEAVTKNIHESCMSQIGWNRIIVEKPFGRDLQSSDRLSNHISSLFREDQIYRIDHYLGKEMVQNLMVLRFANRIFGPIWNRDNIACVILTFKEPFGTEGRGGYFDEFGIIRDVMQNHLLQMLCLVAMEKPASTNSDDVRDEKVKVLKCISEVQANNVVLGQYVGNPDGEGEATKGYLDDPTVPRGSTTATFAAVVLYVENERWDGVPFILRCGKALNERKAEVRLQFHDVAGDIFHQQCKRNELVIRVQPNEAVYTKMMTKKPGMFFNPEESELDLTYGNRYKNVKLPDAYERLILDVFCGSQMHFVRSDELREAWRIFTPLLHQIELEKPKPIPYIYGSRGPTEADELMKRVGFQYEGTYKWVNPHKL

N[C@@H](C(=O)N[C@@H]1C(=O)N2C(C(=O)O)=C(Cl)CS[C@H]12)c1ccccc1 [CEFACLOR ANHYDROUS]
EC50 [1]: 0.559 µM (active)
EC50 (Streptokinase A): > 150 µM (not active)
EC50 (Streptococcus): 1.32 µM (active)
IC50 [2]: 7.18 µM (active)

CCCc1cc(NCc2ccccn2)n2nc(C)c(-c3ccccc3)c2n1
EC50 [1]: 6.67 µM (active)
EC50 (Streptokinase A): > 150 µM (not active)
EC50 [3]: 3.58 µM (active)
EC50 [4]: 8.73 µM (active)
EC50 (Streptococcus): 21.7 µM (active)
CC50 [5]: 10.2 µM (active)
CC50 [6]: 4.48 µM (active)
CC50 [7]: > 20 µM (active)
IC50 (cells): 1.18 µM (active)
AC50 [8]: 1.58 µM (active)

COc1ccc(C(=O)N2CCN(CCc3ccccc3)CC2)cc1[N+](=O)[O-]
IC50 (Fatty acid synthase [9]): 0.786 µM (active)
IC50 (Fatty acid synthase [10]): 0.525 µM (active)

C[C@@]12C(=O)N(c3cccc(Br)c3)C(=O)N1[C@H](c1ccc(Cl)cc1)[C@@H]1C(=O)N(C3CCCCC3)C(=O)[C@@H]12
IC50 (Fatty acid synthase [9]): 7.4 µM (active)
IC50 (Fatty acid synthase [10]): 5.22 µM (active)

CN(C)c1ccc(N=Nc2ccc3ncccc3c2)cc1
IC50 (Nonstructural protein 1): 20.4 µM (active)

CCOC(=O)c1ccc(N2C(=O)CC(N(C)CCc3ccc(OC)c(OC)c3)C2=O)cc1 (stereo not given)
AC50 [8]: 3.1 µM (active)

Cc1cccc(OCC(=O)NCC(=O)N/N=C/c2ccccc2)c1
IC50 [11]: > 80 µM (inactive)

CCOc1ccccc1N1CCN(C(=O)C2c3ccccc3Oc3ccccc32)CC1
IC50 [12]: 29.3 µM (active)

O=C(Cn1cnc2scc(-c3cccc([N+](=O)[O-])c3)c2c1=O)NCc1ccco1
IC50 [2]: 3.15 µM (active)

O=C(Nc1ccc(Br)cc1)c1cccc(-n2cnnn2)c1
IC50 (Fatty acid synthase [9]): 32.9 µM (inactive)
IC50 (Fatty acid synthase [10]): 24.8 µM (inactive)
